Experimental data as given in patent publication US10604476B2, “Fluorinated amide derivatives and their uses as therapeutic agents” (Trillium Therapeutics Inc., priority 2015, dated 2020).

Experiments:
gross motor function [1] = test: Fixed speed rotorod, rat (gross motor function); details: Sprague-Dawley, in vivo, po
Procedure: On the test day following a defined drug pretreatment period, rats received a maximal electroshock (150 mA, 0.2 s duration, 60 Hz) via corneal electrodes. Protection was defined as absence of a full tonic seizure within 10 s of stimulus delivery. Twenty minutes before the MES procedure, the animals were tested on a fixed speed rotorod (best score from 3 trials at 8 r.p.m, trial duration=60 s) to give an early assessment of drug effect on gross motor function.

gross motor function [2] = test: Rotorod, mouse (Table 8); details: in vivo, po, Table 8, mouse
[3] = tested on: maximal electroshock seizure; test: Maximal Electroshock Seizure (MES) rat model; type: in vivo; details: po, 0.5 hour
Procedure: Male, Sprague-Dawley rats and CD-1 mice were used for all studies. All animals were allowed ad-lib access to food and water except during experiment. Animals were housed within an animal vivarium maintained under a 12 h light:dark cycle (lights on: 07:00 h), and all experiments were conducted in the animals light phase. For all experiments, animals were habituated to the vivarium for a minimum of 72 h before experimentation. The experimental procedures used in the present investigation were conducted under the Association for Assessment and Accreditation of Laboratory Animal Care (AAALAC) and the Canadian Council on Animal Care (CCAC) guidelines. All compounds were sonicated in 5% Tween 80® in saline or methylcellulose 0.5% (wgt/vol), using MC and sterile water and injected in a dose volume of 5 ml/kg or 10 ml/kg (rat), and 10 ml/kg (mouse). Drugs were administered by either the oral, intraperitoneal or intravenous route. Male Sprague-Dawley rats of body weight 80-100 g were used for these studies. Each experiment was conducted over 3 consecutive days. On day 1 and 2, each rat received a single electrical stimulus (150 mA, 0.2 s duration, 60 Hz) via corneal electrodes moistened with saline (Shock stimulator type 221: Harvard apparatus). […] Typically this reflected approximately 70-90% of the initial group. […] On the test day following a defined drug pretreatment period, rats received a maximal electroshock (150 mA, 0.2 s duration, 60 Hz) via corneal electrodes. Protection was defined as absence of a full tonic seizure within 10 s of stimulus delivery. Twenty minutes before the MES procedure, the animals were tested on a fixed speed rotorod (best score from 3 trials at 8 r.p.m, trial duration=60 s) to give an early assessment of drug effect on gross motor function.

6 Hz psychomotor seizure = test: Mouse 6 Hz model; type: in vivo; details: mice, ip, 0.5 hour, 32 mA
Procedure: Male, Sprague-Dawley rats and CD-1 mice were used for all studies. All animals were allowed ad-lib access to food and water except during experiment. Animals were housed within an animal vivarium maintained under a 12 h light:dark cycle (lights on: 07:00 h), and all experiments were conducted in the animals light phase. For all experiments, animals were habituated to the vivarium for a minimum of 72 h before experimentation. The experimental procedures used in the present investigation were conducted under the Association for Assessment and Accreditation of Laboratory Animal Care (AAALAC) and the Canadian Council on Animal Care (CCAC) guidelines. All compounds were sonicated in 5% Tween 80® in saline or methylcellulose 0.5% (wgt/vol), using MC and sterile water and injected in a dose volume of 5 ml/kg or 10 ml/kg (rat), and 10 ml/kg (mouse). Drugs were administered by either the oral, intraperitoneal or intravenous route. […] Preliminary experiments established that these stimulus parameters elicited a psychomotor seizure, defined as the expression of at least one of the following behaviors: stun/immobility, forelimb clonus, straub tail, vibrissae tremor, lateral head movement in >95% of control animals. Protection was defined as complete absence of all the above behaviors within 20 s of stimulus delivery. The effective dose of compound necessary to protect against psychomotor seizures to 50% of controls (i.e. ED50) was determined by curve fitting program (Prism v.4.02).

| SMILES | ED50 at 0.5 hour (gross motor function [1]) [mg/kg] | ED50 at 0.5 hour (gross motor function [2]) [mg/kg] | ED50 [3] [mg/kg] | ED50 (6 Hz psychomotor seizure) [mg/kg] |
| --- | --- | --- | --- | --- |
| C[C@@H](Oc1cc(Cl)cc(C(F)(F)F)c1)C(N)=O [I(D), (2R)-2-[3-chloro-5-(trifluoromethyl)-phenoxy]propanamide] | > 500 | > 170 | 22.7 | 48.5 ± 1 |
| NC(=O)COc1cc(C(F)(F)F)cc(C(F)(F)F)c1 [I(F), 2-[3,5 bis(trifluoromethyl)-phenoxy]acetamide;] | > 500 | > 130 | 18.4 | 38.5 ± 1 |
